The values that follow come from patent US12264156B2, “Compounds and pharmaceutical compositions thereof for the treatment of diseases” (GALAPAGOS NV, priority 2018, dated 2025).

The target in assay [1] is T1, SIK1 (Homo sapiens, UniProt P57059).
T1 construct: purchased Carna Biosciences 02-131
The assay is described as follows: ADP-Glo kinase assay, SIK1. Conditions: ADP-Glo SIK kinase assay. The class given is biochemical. In outline:
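Wells with 1% DMSO or 10 μM staurosporine (final) define the control window. The kinase reaction with substrate and ATP runs 120 min at RT, followed by ADP-Glo detection: ATP depletion (40 min) and ADP-derived luminescence (30 min).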
On the technique in general: ADP-Glo turns the ADP formed in a reaction into a luminescent signal.

The target of assay [2] is T2, SIK2 (Homo sapiens, UniProt Q9H0K1).
T2 construct: purchased ThermoFisher Scientific PV4792
T2 sequence (Q9H0K1 whole entry): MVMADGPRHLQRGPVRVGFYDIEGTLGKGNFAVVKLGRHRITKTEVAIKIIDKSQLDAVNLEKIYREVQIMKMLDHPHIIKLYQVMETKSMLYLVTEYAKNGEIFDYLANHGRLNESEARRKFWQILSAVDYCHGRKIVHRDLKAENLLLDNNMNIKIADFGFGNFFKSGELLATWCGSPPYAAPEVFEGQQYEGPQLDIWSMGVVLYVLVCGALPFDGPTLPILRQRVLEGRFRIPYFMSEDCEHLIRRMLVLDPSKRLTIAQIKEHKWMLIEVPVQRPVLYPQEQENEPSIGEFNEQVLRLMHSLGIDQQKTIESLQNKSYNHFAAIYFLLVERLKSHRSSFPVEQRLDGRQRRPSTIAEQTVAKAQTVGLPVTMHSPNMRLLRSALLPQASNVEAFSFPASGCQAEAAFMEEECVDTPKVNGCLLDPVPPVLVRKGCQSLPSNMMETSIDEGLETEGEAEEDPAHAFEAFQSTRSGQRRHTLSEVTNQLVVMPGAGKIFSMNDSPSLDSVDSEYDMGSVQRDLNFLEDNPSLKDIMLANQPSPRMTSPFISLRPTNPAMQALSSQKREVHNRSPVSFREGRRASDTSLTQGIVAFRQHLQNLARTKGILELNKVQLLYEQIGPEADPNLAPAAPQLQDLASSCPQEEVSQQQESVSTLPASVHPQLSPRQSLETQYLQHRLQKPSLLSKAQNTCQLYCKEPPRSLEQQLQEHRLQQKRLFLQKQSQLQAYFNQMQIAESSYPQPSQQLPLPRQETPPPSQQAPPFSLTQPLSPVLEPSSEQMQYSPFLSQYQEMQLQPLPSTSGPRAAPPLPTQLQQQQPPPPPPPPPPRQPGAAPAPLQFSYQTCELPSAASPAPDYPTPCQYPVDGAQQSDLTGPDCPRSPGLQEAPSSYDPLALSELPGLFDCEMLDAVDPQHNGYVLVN
The experiment in a line: ADP-Glo kinase assay, SIK2. Type of assay: biochemical. Conditions: ADP-Glo SIK kinase assay. The method, boiled down: (§1)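 ADP-Glo, RT throughout. Enz/substrate + ATP, 120 min; ADP-Glo reagent 40 min (ATP depletion); detection reagent 30 min; luminescence read. Neg ctrl 1% DMSO, pos ctrl 10 μM staurosporine, final concs.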

For assay [3], the target named is T3, SIK3 (Homo sapiens, UniProt Q9Y2K2).
T3 construct: purchased SignalChem S12-11G-100
T3 sequence (Q9Y2K2 whole entry): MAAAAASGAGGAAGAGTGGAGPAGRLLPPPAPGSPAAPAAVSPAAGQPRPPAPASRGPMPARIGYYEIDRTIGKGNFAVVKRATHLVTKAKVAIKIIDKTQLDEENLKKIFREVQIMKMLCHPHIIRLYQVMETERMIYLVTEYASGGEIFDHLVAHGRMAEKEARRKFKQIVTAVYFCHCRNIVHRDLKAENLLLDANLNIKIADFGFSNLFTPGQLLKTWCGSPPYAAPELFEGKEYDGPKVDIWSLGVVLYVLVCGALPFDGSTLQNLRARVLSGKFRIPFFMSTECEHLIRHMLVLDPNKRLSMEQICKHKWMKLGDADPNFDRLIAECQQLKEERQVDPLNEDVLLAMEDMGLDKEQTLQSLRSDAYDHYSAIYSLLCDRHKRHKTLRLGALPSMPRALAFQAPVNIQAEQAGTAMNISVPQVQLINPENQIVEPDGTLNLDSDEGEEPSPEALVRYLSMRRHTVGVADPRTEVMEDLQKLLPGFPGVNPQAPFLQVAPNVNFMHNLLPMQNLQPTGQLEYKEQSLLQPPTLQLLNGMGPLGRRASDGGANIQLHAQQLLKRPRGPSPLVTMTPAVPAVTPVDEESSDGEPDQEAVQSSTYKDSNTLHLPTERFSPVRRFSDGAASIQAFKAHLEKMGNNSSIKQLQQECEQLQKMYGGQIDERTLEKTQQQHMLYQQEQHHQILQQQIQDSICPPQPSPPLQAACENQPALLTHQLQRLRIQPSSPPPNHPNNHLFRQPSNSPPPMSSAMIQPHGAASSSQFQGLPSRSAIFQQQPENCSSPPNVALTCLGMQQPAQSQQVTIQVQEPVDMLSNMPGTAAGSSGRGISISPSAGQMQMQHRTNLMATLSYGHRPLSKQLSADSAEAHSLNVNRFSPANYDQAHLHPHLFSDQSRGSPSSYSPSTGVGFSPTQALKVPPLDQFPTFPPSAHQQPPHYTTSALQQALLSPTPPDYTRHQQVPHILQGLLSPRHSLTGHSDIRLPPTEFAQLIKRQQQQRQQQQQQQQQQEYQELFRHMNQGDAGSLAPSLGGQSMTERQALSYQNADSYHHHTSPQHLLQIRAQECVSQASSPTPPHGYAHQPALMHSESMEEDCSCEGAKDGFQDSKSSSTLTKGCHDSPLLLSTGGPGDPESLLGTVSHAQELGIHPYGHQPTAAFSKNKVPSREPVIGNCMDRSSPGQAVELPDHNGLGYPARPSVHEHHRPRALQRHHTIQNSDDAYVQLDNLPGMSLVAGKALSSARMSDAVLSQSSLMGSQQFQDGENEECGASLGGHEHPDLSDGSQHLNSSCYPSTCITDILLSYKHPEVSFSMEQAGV
The experiment in a line: ADP-Glo kinase assay, SIK3. Type of assay: biochemical. The settings on record: ADP-Glo SIK kinase assay. In outline: as §1

The subject of assay [4] is LPS-induced TNFα in monocyte-derived macrophages (MdM). The experiment in a line: MdM assay: LPS-triggered TNFα (ELISA). The class given is cell-based, human. In outline:
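Compound added 1 h before LPS (200 ng/mL final) to day-10 macrophages derived from magnetically isolated CD14+ human blood monocytes, DMSO held at 0.2%. TNFα secreted over 20 h of stimulation quantified by ELISA against a standard curve.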
(In general: ELISA stands for enzyme-linked immunosorbent assay.)

Where [5] appears, read: Homo sapiens, Macrophage, 20 h, monocyte-derived macrophages, LPS 200 ng/mL, supernatant after 20 h, read-out: TNFα EC50.

Like-named read-outs stand apart in the source and are kept apart here.

T1 sequence (P57059 whole entry): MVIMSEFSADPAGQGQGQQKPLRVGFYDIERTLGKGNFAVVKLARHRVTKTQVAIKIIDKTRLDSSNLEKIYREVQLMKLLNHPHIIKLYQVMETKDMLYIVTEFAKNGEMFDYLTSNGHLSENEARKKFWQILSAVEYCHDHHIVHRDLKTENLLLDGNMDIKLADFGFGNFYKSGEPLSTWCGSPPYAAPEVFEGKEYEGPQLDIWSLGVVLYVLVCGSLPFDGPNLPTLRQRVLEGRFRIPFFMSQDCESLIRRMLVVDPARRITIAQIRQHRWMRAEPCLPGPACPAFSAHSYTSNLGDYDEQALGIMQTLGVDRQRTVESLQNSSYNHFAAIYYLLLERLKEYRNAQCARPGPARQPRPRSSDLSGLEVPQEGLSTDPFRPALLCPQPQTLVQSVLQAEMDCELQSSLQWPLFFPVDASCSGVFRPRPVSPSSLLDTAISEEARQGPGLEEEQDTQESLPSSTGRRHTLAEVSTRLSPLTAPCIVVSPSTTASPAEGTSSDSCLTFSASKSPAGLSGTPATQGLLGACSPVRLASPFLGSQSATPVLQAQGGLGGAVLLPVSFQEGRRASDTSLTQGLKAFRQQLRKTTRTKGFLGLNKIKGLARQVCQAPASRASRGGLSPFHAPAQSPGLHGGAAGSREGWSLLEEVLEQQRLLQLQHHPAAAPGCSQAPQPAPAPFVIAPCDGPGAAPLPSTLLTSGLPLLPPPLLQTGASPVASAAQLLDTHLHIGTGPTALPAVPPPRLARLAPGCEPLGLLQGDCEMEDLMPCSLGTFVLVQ

Take `CNc1cc(-c2cnc3cc(OCCN(C)C)ccn23)cc(OC(F)F)c1C(=O)NCC(F)(F)F` [Cpd 165, 2-(difluoromethoxy)-4-[7-[2-(dimethylamino)ethoxy]imidazo[1,2-a]pyridin-3-yl]-6-(methylamino)-N-(2,2,2-trifluoroethyl)benzamide]: the IC50 in assay [1] fell in the range of 100 to 500 nM; in assay [2], 0.01 to 10 nM; in assay [3], 0.01 to 10 nM. The EC50 in assay [4] (setting [5]) is 100 to 1000 nM.

On to `COc1cc(-c2cnc3cc(OCCN4CCOCC4)ccn23)cc2c1C(=O)N(CC(F)F)CC2` [compound 218, 2-(2,2-difluoroethyl)-8-methoxy-6-[7-(2-morpholinoethoxy)imidazo [1,2-a]pyridin-3-yl]-3,4-dihydroisoquinolin-1-one], for which the half-maximal inhibitory concentration (IC50) in assay [1] lay within 100 to 500 nM; in assay [2] it was 0.01 to 10 nM; in assay [3] it was 0.01 to 10 nM. The 50% effective concentration (EC50) in assay [4] (setting [5]) lay within 100 to 1000 nM.

With `COc1cc(-c2cnc3cc(OCCN4CCS(=O)(=O)CC4)ccn23)cc2c1C(=O)N(CC(F)(F)F)CC2` [compound 41, 6-[7-[2-(1,1-dioxo-1,4-thiazinan-4-yl)ethoxy]imidazo[1,2-a]pyridin-3-yl]-8-methoxy-2-(2,2,2-trifluoroethyl)-3,4-dihydroisoquinolin-1-one], the IC50 lay in the range of 100 to 500 nM in assay [1], 0.01 to 10 nM in assay [2] and 0.01 to 10 nM in assay [3]. Further, the half-maximal effective concentration (EC50) in assay [4] (setting [5]) fell in the range of 1000 to 5000 nM.

For `COc1cc(-c2cnc3cc(OCCN(C)C)ccn23)cc2c1C(=O)N(CC(F)F)CC2` [compound 54, 2-(2,2-difluoroethyl)-6-[7-[2-(dimethylamino)ethoxy]imidazo [1,2-a]pyridin-3-yl]-8-methoxy-3,4-dihydro isoquinolin-1-one], the IC50 was over 500 nM in assay [1], 0.01 to 10 nM in assay [2] and 10 to 100 nM in assay [3]. Moreover, the EC50 in assay [4] (setting [5]) was in the range of 100 to 1000 nM.

For the compound `COc1cc(-c2cnc3cc(OCCN(C)C)ccn23)cc2c1C(=O)N(CC(F)(F)F)CC2` [Cpd 18, 6-[7-[2-(dimethylamino)ethoxy]imidazo[1,2-a]pyridin-3-yl]-8-methoxy-2-(2,2,2-trifluoroethyl)-3,4-dihydroisoquinolin-1-one], the figures for the half-maximal inhibitory concentration (IC50) in assay [1], in assay [2] and in assay [3] were over 500 nM, 0.01 to 10 nM and 10 to 100 nM, respectively. The EC50 in assay [4] (setting [5]) lay within 100 to 1000 nM.

Regarding `COc1cc(-c2cnc3cc(OCC4CCO4)ccn23)cc2c1C(=O)N(CC(F)(F)F)CC2` (stereo not shown) [compound 125, 8-methoxy-6-[7-(oxetan-2-ylmethoxy)imidazo[1,2-a]pyridin-3-yl]-2-(2,2,2-trifluoroethyl)-3,4-dihydroisoquinolin-1-one], the results for the 50% inhibitory concentration (IC50) in assay [1], in assay [2] and in assay [3] were 100 to 500 nM, 0.01 to 10 nM and 0.01 to 10 nM, respectively. Moreover, the EC50 in assay [4] (setting [5]) lay within 100 to 1000 nM.

With `COc1cc(-c2cnc3cc(OCC4CCCCN4C)ccn23)cc(OC(F)F)c1C(=O)NC1CC1` (stereo not shown) [compound 23, N-cyclopropyl-2-(difluoromethoxy)-6-methoxy-4-[7-[(1-methyl-2-piperidyl)methoxy]imidazo[1,2-a]pyridin-3-yl]benzamide], the IC50 lay within 100 to 500 nM in assay [1], 0.01 to 10 nM in assay [2] and 0.01 to 10 nM in assay [3]. For the same compound, the 50% effective concentration (EC50) in assay [4] (setting [5]) lay within 100 to 1000 nM.

Turning to `COc1cc(-c2cnc3cc(OC[C@@H]4COCCO4)ccn23)cc2c1C(=O)N(CC(F)(F)F)CC2` [compound 225, 6-[7-[[(2S)-1,4-dioxan-2-yl]methoxy]imidazo[1,2-a]pyridin-3-yl]-8-methoxy-2-(2,2,2-trifluoroethyl)-3,4-dihydroisoquinolin-1-one], the values for the IC50 in assay [1], in assay [2] and in assay [3] were 100 to 500 nM, 0.01 to 10 nM and 0.01 to 10 nM, respectively. Moreover, the EC50 in assay [4] (setting [5]) was in the range of 100 to 1000 nM.

For `COc1cc(-c2cnc3cc(OCC(O)CN4CCOCC4)ccn23)cc(OC(F)F)c1C(=O)NC1CC1` (single isomer, unassigned) [Cpd 387, N-cyclopropyl-2-(difluoromethoxy)-4-[7-(2-hydroxy-3-morpholino-propoxy)imidazo[1,2-a]pyridin-3-yl]-6-methoxy-benzamide], the IC50 was in the range of 10 to 100 nM in assay [1], 0.01 to 10 nM in assay [2] and 0.01 to 10 nM in assay [3]. For the same compound, in assay [4] (monocyte-derived macrophages, LPS 200 ng/mL, supernatant after 20 h, read-out: TNFα EC50), the EC50 was in the range of 0.1 to 100 nM.

As for `COc1cc(-c2cnc3cc(OCCN4C5CCC4COC5)ccn23)cc(OC(F)F)c1C(=O)NC1CC1` [compound 193, N-cyclopropyl-2-(difluoromethoxy)-6-methoxy-4-[7-[2-(3-oxa-8-azabicyclo [3.2.1]octan-8-yl)ethoxy]imidazo[1,2-a]pyridin-3-yl]benzamide], the IC50 is 10 to 100 nM in assay [1], 0.01 to 10 nM in assay [2] and 0.01 to 10 nM in assay [3]. In addition, the half-maximal effective concentration (EC50) in assay [4] (Homo sapiens, Macrophage, 20 h, read-out: TNFα EC50 (nM)) lay within 100 to 1000 nM.

In the case of `COc1cc(-c2cnc3cc(OCCCN4CCCC4)ccn23)cc(OC(F)F)c1C(=O)NC1CC1` [compound 275, N-cyclopropyl-2-(difluoromethoxy)-6-methoxy-4-[7-(3-pyrrolidin-1-ylpropoxy)imidazo[1,2-a]pyridin-3-yl]benzamide], the values for the IC50 in assay [1], in assay [2] and in assay [3] were 10 to 100 nM, 0.01 to 10 nM and 0.01 to 10 nM, respectively. Also, the half-maximal effective concentration (EC50) in assay [4] (setting [5]) fell in the range of 100 to 1000 nM.

Regarding `CCOC(=O)C1(F)CCN(CCOc2ccn3c(-c4cc(OC)c(C(=O)NC5CC5)c(OC(F)F)c4)cnc3c2)CC1` [compound 390, ethyl 1-[2-[3-[4-(cyclopropylcarbamoyl)-3-(difluoromethoxy)-5-methoxy-phenyl]imidazo[1,2-a]pyridin-7-yl]oxyethyl]-4-fluoro-piperidine-4-carboxylate], the half-inhibitory concentration (IC50) fell in the range of 10 to 100 nM in assay [1], 0.01 to 10 nM in assay [2] and 0.01 to 10 nM in assay [3]. Moreover, the EC50 in assay [4] (setting [5]) was 0.1 to 100 nM.

`COc1cc(-c2cnc3cc(OCC(O)CN4CCCCC4)ccn23)cc(OC(F)F)c1C(=O)NC1CC1` (stereo not shown) [Cpd 321, N-cyclopropyl-2-(difluoromethoxy)-4-[7-[2-hydroxy-3-(1-piperidyl)propoxy]imidazo [1,2-a]pyridin-3-yl]-6-methoxy-benzamide]: the IC50 in assay [1] is 10 to 100 nM; in assay [2] it was 0.01 to 10 nM; in assay [3], 0.01 to 10 nM. The concentration giving a half-maximal response (EC50) in assay [4] (setting [5]) was 0.1 to 100 nM.

With `COc1cc(-c2cnc3cc(OCCC4CCCN4C)ccn23)cc2c1C(=O)N(CC(F)(F)F)CC2` (stereo not shown) [Cpd 122, 8-methoxy-6-[7-[2-(1-methylpyrrolidin-2-yl)ethoxy]imidazo[1,2-a]pyridin-3-yl]-2-(2,2,2-trifluoroethyl)-3,4-dihydroisoquinolin-1-one], the IC50 in assay [1] was in the range of 100 to 500 nM; in assay [2], 0.01 to 10 nM; in assay [3], 0.01 to 10 nM. Moreover, the EC50 in assay [4] (setting [5]) was 100 to 1000 nM.

In the case of `COc1cc(-c2cnc3cc(OCCN(C)C)ccn23)cc(OC(F)F)c1C(=O)NC1CC1` [Cpd 6, N-cyclopropyl-2-(difluoromethoxy)-4-[7-[2-(dimethylamino)ethoxy]imidazo[1,2-a]pyridin-3-yl]-6-methoxy-benzamide], the concentration for half-maximal inhibition (IC50) in assay [1] was 100 to 500 nM; in assay [2], 0.01 to 10 nM; in assay [3], 0.01 to 10 nM. The concentration giving a half-maximal response (EC50) in assay [4] (setting [5]) was in the range of 100 to 1000 nM.

On to `COc1cc(-c2cnc3cc(OCC4CN(C)CCO4)ccn23)cc2c1C(=O)N(CC(F)(F)F)CC2` (stereo not shown) [compound 127, 8-methoxy-6-[7-[(4-methylmorpholin-2-yl)methoxy]imidazo[1,2-a]pyridin-3-yl]-2-(2,2,2-trifluoroethyl)-3,4-dihydroisoquinolin-1-one], for which the IC50 fell in the range of 100 to 500 nM in assay [1], 0.01 to 10 nM in assay [2] and 0.01 to 10 nM in assay [3]. The EC50 in assay [4] (setting [5]) fell in the range of 100 to 1000 nM.

Consider `CNc1cc(-c2cnc3cc(OCCN(C)C)ccn23)cc2c1C(=O)N(CC(F)(F)F)CC2` [compound 167, 6-[7-[2-(dimethylamino)ethoxy]imidazo[1,2-a]pyridin-3-yl]-8-(methylamino)-2-(2,2,2-trifluoroethyl)-3,4-dihydroisoquinolin-1-one], for which the IC50 in assay [1] is over 500 nM; in assay [2], 0.01 to 10 nM; in assay [3], 10 to 100 nM. In addition, the concentration for a half-maximal effect (EC50) in assay [4] (setting [5]) was over 5000 nM.

Turning to `COc1cc(-c2cnc3cc(OCCC4CCCN4C)ccn23)cc(OC(F)F)c1C(=O)NC1CC1` (stereo not shown) [compound 17, N-cyclopropyl-2-(difluoromethoxy)-6-methoxy-4-[7-[2-(1-methylpyrrolidin-2-yl)ethoxy]imidazo[1,2-a]pyridin-3-yl]benzamide], the 50% inhibitory concentration (IC50) was in the range of 10 to 100 nM in assay [1], 0.01 to 10 nM in assay [2] and 0.01 to 10 nM in assay [3]. Further, the EC50 in assay [4] (setting [5]) lay within 0.1 to 100 nM.

Take `CN(C)CCOc1ccn2c(-c3cc4c(c(OC(F)F)c3)C(=O)N(CC(F)F)CC4)cnc2c1` [Cpd 150, 2-(2,2-difluoroethyl)-8-(difluoromethoxy)-6-[7-[2-(dimethylamino)ethoxy]imidazo[1,2-a]pyridin-3-yl]-3,4-dihydroisoquinolin-1-one]: the IC50 in assay [1] lay in the range of 100 to 500 nM; in assay [2] it was 0.01 to 10 nM; in assay [3], 0.01 to 10 nM. For the same compound, the concentration giving a half-maximal response (EC50) in assay [4] (setting [5]) is 100 to 1000 nM.

What is called IC50 is the concentration needed to halve the response being measured. Read a high IC50 as lower potency. The EC50 is the concentration giving half of the maximal effect.
